The nature of series [1]: Stability in aqueous solution. It counts as physicochemical. Conditions: for Stability: hydrochloride(s).
For series [2], the target named is T1, Penicillinase (Bacillus cereus, UniProt P10424).
T1 construct: purchased Calbio Chemical, U.S.A; host or cells: Bacillus cereus
Briefly: Stability to β-lactamases, disc method, penicillinase (Table 2). The following applies: penicillinase 0.048 unit/ml; E. coli PG8; compound 100 g/ml (so in the source). Type of series: cell-based. The method, then: (§1) Note: Used concentration of the compound; 100 µg/ml Employed strain;
(§2) Escherichia coli PG8 Culture medium; Nutrient agar medium (pH 7.0)
(§3) containing diaminopimelic acid (20 mg/l)
(Note 2) Penicillinase derived from Bacillus cereus (produced by Calbio
Chemical, U.S.A.)0.048 unit/ml.

For a further series, the system named is Escherichia coli PG8. Briefly: Stability to β-lactamases, disc method, non-added control (Table 2). The following applies: PG8, read-out: Diameter of growth inhibition zone (by the disc method). Type of series: cell-based. The method, then:
as §1, §2, §3

For series [3], the target named is T2, Cephalosporinase (Enterobacter cloacae, UniProt P05364).
T2 construct: host or cells: Enterobacter cloacae
Nature of the series: Stability to β-lactamases, disc method, cephalosporinase (Table 2). It counts as cell-based. The following applies: cephalosporinase 0.025 unit/ml; E. coli PG8; compound 100 g/ml (so in the source). The method, then: as §1, §2, §3
(Note 3) Cephalosprinase is derived from Enterobacter cloacae, 0.025

The test system of series [4] is Pseudomonas aeruginosa C141. Briefly: Stability to β-lactamases, disc method, non-added control (Table 5). Conditions: read-out: Diameter of growth inhibition zone (by the disc method); for zone of inhibition at 100 µg/mL: P. aeruginosa C141, other compounds 100 μg/ml. It counts as cell-based. The method, then:
(§4) Concentration of the compound (II) 1000 μg/ml
(§5) Concentration of the other compounds: 100 μg/ml
(§6) Strain used: Pseudomonas aeruginosa C141
(§7) Culture medium: Nutrient agar medium (pH 7.0) containing diaminopimeric

Series [5] addresses T1, Penicillinase. Briefly: Stability to β-lactamases, disc method, penicillinase (Table 5). It counts as cell-based. Conditions: penicillinase 0.048 unit/ml, P. aeruginosa C141. The method, then: as §4, §5, §6, §7
(Note 3) Penicillinase (Calbio Chemical, U.S.A.) derived from Bacillus

For series [6], the target named is T2, Cephalosporinase. Nature of the series: Stability to β-lactamases, disc method, cephalosporinase (Table 5). Type of series: cell-based. Conditions: cephalosporinase 0.025 unit/ml, P. aeruginosa C141. The method, then: as §4, §5, §6, §7
(Note 4) The enzyme is derived from Enterobacter cloacae, 0.025 unit/ml.

The nature of series [7]: Acute toxicity, subcutaneous administration to mice. It counts as in vivo. The following applies: for toxicity: conclusion from 1 g/kg s.c. in mice; for death: mice, subcutaneous, 1 g/kg, sodium salt.
Series [8] deals with Bacillus subtilis NIHJ PCI219. Briefly: MIC, antibacterial spectrum (nutrient agar). The following applies: NIHJPCI219, nutrient agar pH 7.0, 10^6 CFU/ml, sodium salt, read-out: Minimal inhibitory concentration. It counts as cell-based. The text has this:
(§8) | Culture medium: Nutrient agar (pH 7.0) concentration of microorganisms | inoculated: 10^6 CFU (colony forming unit)/ml.

The test system of series [9] is Escherichia coli NIHJ JC-2. Nature of the series: MIC, antibacterial spectrum (nutrient agar). Type of series: cell-based. Conditions: NIHJJC2, nutrient agar pH 7.0, 10^6 CFU/ml, sodium salt, read-out: Minimal inhibitory concentration.
From the text: as §8

For series [10], the system named is Salmonella typhimurium IFO 12529. Nature of the series: MIC, antibacterial spectrum (nutrient agar). Type of series: cell-based. The following applies: Salmonella enterica, nutrient agar pH 7.0, 10^6 CFU/ml, sodium salt, read-out: Minimal inhibitory concentration.
From the text: as §8

Series [11] has as its system Serratia marcescens IFO 12648. Briefly: MIC, antibacterial spectrum (nutrient agar). Type of series: cell-based. The following applies: IFO12648, nutrient agar pH 7.0, 10^6 CFU/ml, sodium salt, read-out: Minimal inhibitory concentration.
From the text: as §8

Series [12] deals with Klebsiella pneumoniae IFO 3317. Briefly: MIC, antibacterial spectrum (nutrient agar). Type of series: cell-based. The following applies: IFO3317, nutrient agar pH 7.0, 10^6 CFU/ml, sodium salt, read-out: Minimal inhibitory concentration.
From the text: as §8

The subject of series [13] is Staphylococcus aureus FDA 209P. Nature of the series: MIC, antibacterial spectrum (nutrient agar). Type of series: cell-based. The following applies: FDA209P, nutrient agar pH 7.0, 10^6 CFU/ml, sodium salt, read-out: Minimal inhibitory concentration.
From the text: as §8

The test system of series [14] is Pseudomonas aeruginosa IFO 3080. Nature of the series: MIC, antibacterial spectrum (nutrient agar). The following applies: IFO3080, nutrient agar pH 7.0, 10^6 CFU/ml, sodium salt, read-out: Minimal inhibitory concentration. It counts as cell-based.
From the text: as §8

Series [15] concerns Proteus vulgaris IFO 3988. Briefly: MIC, antibacterial spectrum (nutrient agar). It counts as cell-based. The following applies: IFO3988, nutrient agar pH 7.0, 10^6 CFU/ml, sodium salt, read-out: Minimal inhibitory concentration.
From the text: as §8

In series [16] the test system is Proteus mirabilis ATCC 21100. Nature of the series: MIC, antibacterial spectrum (nutrient agar). Type of series: cell-based. The following applies: ATCC21100, nutrient agar pH 7.0, 10^6 CFU/ml, sodium salt, read-out: Minimal inhibitory concentration.
From the text: as §8

For series [17], the system named is Bacillus megaterium IFO 12108. Nature of the series: MIC, antibacterial spectrum (nutrient agar). Conditions: Priestia megaterium, IFO12108, nutrient agar pH 7.0, 10^6 CFU/ml, sodium salt, read-out: Minimal inhibitory concentration. Type of series: cell-based.
From the text: as §8

The subject of series [18] is Alcaligenes faecalis IFO 13111. Nature of the series: MIC, antibacterial spectrum (nutrient agar). Type of series: cell-based. The following applies: IFO13111, nutrient agar pH 7.0, 10^6 CFU/ml, sodium salt, read-out: Minimal inhibitory concentration.
From the text: as §8

In a further series the test system is gram-positive bacteria. Briefly: Antibacterial activity against gram-positive bacteria (statement in words). Type of series: cell-based.
Another series deals with gram-negative bacteria. Briefly: Antibacterial activity against gram-negative bacteria (statement in words). Type of series: cell-based.
The subject of another series is β-lactamases. Nature of the series: Stability to β-lactamases (statement in words). It counts as cell-based.
A further series in a line: Solubility. The following applies: sodium salt.
Series [19] relates to Pseudomonas aeruginosa C141. Nature of the series: Antibacterial spectrum, growth inhibition zone (Table 4). Type of series: cell-based. Conditions: compound (II) 1000 μg/ml, pH 7.0, sodium salt, read-out: Diameter of growth inhibition zone. The method, then: as §7
(§9) Concentration of the compound (II): 1000 μg/ml.

Series [20] concerns Staphylococcus aureus FDA 209P. The series is described as above. Type of series: cell-based. The following applies: FDA209P, compound (II) 1000 μg/ml, pH 7.0, sodium salt, read-out: Diameter of growth inhibition zone. The method, then:
as §7, §9

The next series relates to Escherichia coli CP 13. Described as above. It counts as cell-based. The following applies: CP13, E. coli CP 13, compound (II) 1000 μg/ml, pH 7.0, sodium salt, read-out: Diameter of growth inhibition zone. The method, then: as §7, §9

“Also recorded” adds a separate entry of the source. Read-outs that look alike come from different tables or passages of the source.

T1 sequence (P10424 44-306): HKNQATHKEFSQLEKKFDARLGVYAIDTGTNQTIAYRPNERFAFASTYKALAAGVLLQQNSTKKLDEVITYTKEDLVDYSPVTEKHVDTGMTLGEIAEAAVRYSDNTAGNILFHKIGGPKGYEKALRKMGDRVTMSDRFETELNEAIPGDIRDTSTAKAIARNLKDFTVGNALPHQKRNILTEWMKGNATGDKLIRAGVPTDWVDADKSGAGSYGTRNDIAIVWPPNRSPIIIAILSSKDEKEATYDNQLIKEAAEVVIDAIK
T2 sequence (P05364 21-381): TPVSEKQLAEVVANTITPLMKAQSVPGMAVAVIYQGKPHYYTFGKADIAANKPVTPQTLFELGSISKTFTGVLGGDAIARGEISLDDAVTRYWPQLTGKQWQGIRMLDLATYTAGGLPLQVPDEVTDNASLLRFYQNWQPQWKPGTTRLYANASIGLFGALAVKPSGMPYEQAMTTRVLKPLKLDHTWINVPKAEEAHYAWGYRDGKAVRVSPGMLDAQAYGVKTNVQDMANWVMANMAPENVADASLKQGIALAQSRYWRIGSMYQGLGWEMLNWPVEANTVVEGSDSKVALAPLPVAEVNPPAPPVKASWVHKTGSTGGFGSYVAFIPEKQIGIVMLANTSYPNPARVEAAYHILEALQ

As to `CC(N)C(=O)NC(C)C(=O)NC(CCCNC(=N)N)C(O)CC(=O)OCC1=C(C(=O)O)N2C(=O)[C@@](NC=O)(NC(=O)CCCC(N)C(=O)O)C2SC1` (stereo partly drawn) [TAN-547B], the Stability entry is recorded as “Unstable” in series [1] (acidic aqueous solution), “Unstable” in series [1] (basic aqueous solution) and “slightly unstable” in series [1] (neutral aqueous solution).
By zone of inhibition is commonly meant the extent of the growth-free halo in a diffusion test. As for `N[C@H](CCCC(=O)N[C@@H]1C(=O)N2C(C(=O)O)=C(CO)CS[C@H]12)C(=O)O` [DCPC, deacetylcephalosporin C], the “Diameter of growth inhibition zone (by the disc method)” value (“Diameter of growth inhibition zone” for short) is listed as 30 mm on Penicillinase [2], under 8 mm at Cephalosporinase [3], 30 mm on Penicillinase [5] (other compounds 100 μg/ml) and under 8 mm at Cephalosporinase [6] (other compounds 100 μg/ml). In addition, the zone of inhibition at 100 µg/mL (in the series on Escherichia coli PG8; in [4]) was 30 mm each time.
For the compound `CO[C@@]1(NC(=O)CCC[C@@H](N)C(=O)O)C(=O)N2C(C(=O)O)=C(COC(N)=O)CS[C@@H]21` [CMC, Cephamycin C], the “Diameter of growth inhibition zone” value on Penicillinase [2] was 30 mm; on Cephalosporinase [3], under 8 mm; on Penicillinase [5] (other compounds 100 μg/ml), 27.5 mm; on Cephalosporinase [6] (other compounds 100 μg/ml), under 8 mm. For the same compound, the zone of inhibition at 100 µg/mL in the series with Escherichia coli PG8 is 30 mm; in [4], 27.5 mm.
In the case of `CC(N)C(=O)NC(CCCNC(=N)N)C(O)CC(=O)OCC1=C(C(=O)O)N2C(=O)[C@@H](NC(=O)CCCC(N)C(=O)O)C2SC1` (stereo partly drawn) [TAN-547D], the Stability result was “Slightly unstable” in series [1] (acidic aqueous solution), “Unstable” in series [1] (basic aqueous solution) and “Slightly unstable” in series [1] (neutral aqueous solution).
On to `CC(N)C(=O)NC(C)C(=O)NC(CCCNC(=N)N)C(O)CC(=O)OCC1=C(C(=O)O)N2C(=O)[C@@H](NC(=O)CCCC(N)C(=O)O)C2SC1` (stereo partly drawn) [TAN-547E], for which the Stability result in [1] (acidic aqueous solution) was “Slightly unstable”; in [1] (basic aqueous solution), “Unstable”; in [1] (neutral aqueous solution), “Slightly unstable”.
For the compound `NC(CCCC(=O)N[C@]1(NC=O)C(=O)N2C(C(=O)O)=C(CO)CSC21)C(=O)O` (stereo partly drawn) [7-FA-DCPC, 7-formylamino-deacetylcephalosporin C], the “Diameter of growth inhibition zone” value on Penicillinase [2] and at Cephalosporinase [3] was 23 mm throughout. Besides, the zone of inhibition at 100 µg/mL with Escherichia coli PG8 came to 23 mm. Also, the toxicity result in series [7] is given as “low toxicity”. Further, the death result in [7] is recorded as “no death was observed”. In addition, the MIC in [8] amounted to 100 µg/mL; in series [9] it was 50 µg/mL; in series [10], 25 µg/mL; in [11] it was 25 µg/mL; in series [12] it was 50 µg/mL; in series [13] it was 100 µg/mL. In addition, the MIC in series [14] was 100 µg/mL; in series [15] it was 25 µg/mL; in series [16], 12.5 µg/mL; in series [17] it was 100 µg/mL; in [18], 12.5 µg/mL. In addition, the antibacterial activity entry was “exhibits antibacterial activity” in the series on gram-positive bacteria, “exhibits antimicrobial activity” with gram-positive bacteria (listed as compound (IV)), “exhibits antibacterial activity” in the series on gram-negative bacteria and “exhibits antimicrobial activity” in the series with gram-negative bacteria (listed as compound (IV)). Besides, the “Stability to β-lactamases” value with β-lactamases is given as “stable to various β-lactamases”; in the series on β-lactamases (listed as compound (IV)), “stable to β-lactamase producing strains”. The Solubility entry in “Solubility” (diethyl ether and ethyl acetate) was “Sparingly soluble”; in “Solubility” (methanol), “Soluble”; in “Solubility” (water), “Readily soluble”.
With `CC(N)C(=O)NC(C)C(=O)NC(C)C(=O)NC(CCCNC(=N)N)C(O)CC(=O)OCC1=C(C(=O)O)N2C(=O)[C@@](NC=O)(NC(=O)CCCC(N)C(=O)O)C2SC1` (stereo partly drawn) [TAN-547C], the Stability entry is recorded as “Unstable” in series [1] (acidic aqueous solution), “Unstable” in series [1] (basic aqueous solution) and “slightly unstable” in series [1] (neutral aqueous solution).
In the case of `CC(N)C(=O)NC(C)C(=O)NC(C)C(=O)NC(CCCNC(=N)N)C(O)CC(=O)OCC1=C(C(=O)O)N2C(=O)[C@@H](NC(=O)CCCC(N)C(=O)O)C2SC1` (stereo partly drawn) [TAN-547F], the Stability entry is “Slightly unstable” in series [1] (acidic aqueous solution), “Unstable” in [1] (basic aqueous solution) and “Slightly unstable” in [1] (neutral aqueous solution).
For the compound `N[C@]1(NC=O)C(=O)N2C(C(=O)O)=C(CO)CSC21` (stereo partly drawn) [compound (II)], the toxicity result in series [7] is on record as “low toxicity”. For the same compound, in series [7], the death result is reported as “no death was observed”. In addition, the zone of inhibition at 1000 µg/mL in series [19] was 19 mm; in series [20] it was under 8 mm; in the series with Escherichia coli CP 13, 11 mm; in series [4] (P. aeruginosa C141, compound (II) 1000 μg/ml) it was 19 mm. Besides, in the series with gram-negative bacteria, the antibacterial activity entry is “exhibits antibacterial activity; also recorded: exhibits antimicrobial activity”. Besides, the “Stability to β-lactamases” value in the series with β-lactamases is “stable to various β-lactamases”. Further, in series [1] (compared with a cephem compound which is acetylated (--CH2OCOCH3 at 3-position)), the “stability in aqueous solution” value is “remarkably more stable in aqueous solution”. The “Diameter of growth inhibition zone” value on Penicillinase [5] (compound (II) 1000 μg/ml) and at Cephalosporinase [6] (compound (II) 1000 μg/ml) was 19 mm in each case.
`CC(N)C(=O)NC(CCCNC(=N)N)C(O)CC(=O)OCC1=C(C(=O)O)N2C(=O)[C@@](NC=O)(NC(=O)CCCC(N)C(=O)O)C2SC1` (stereo partly drawn) [TAN-547A]: the values for the Stability entry in [1] (acidic aqueous solution), in series [1] (basic aqueous solution) and in series [1] (neutral aqueous solution) were “Unstable”, “Unstable” and “slightly unstable”, respectively.

(Values after patent publication US4723004A, “Cephem compounds” (priority 1984, dated 1988).)
